In paper PMC3885546, “Structural Determinants of the 5′-Methylthioinosine Specificity of Plasmodium Purine Nucleoside Phosphorylase” (PLoS ONE, 2014):
Numbering of substitutions follows the chain as printed.

Columns and labels:
Experiment in all cases: Substrate kinetics, coupled assay
Type in all cases: biochemical
[1] = target: T1, PfPNP Tyr160Ala (Plasmodium falciparum, UniProt Q8I3X4, Y160A); conditions: for Km / kcat / reduced catalytic efficiency compared to wild-type PfPNP: substrate = label
T1 construct: made in house; host or cells: Escherichia coli Top 10
T1 sequence (Q8I3X4 1-245 Y160A): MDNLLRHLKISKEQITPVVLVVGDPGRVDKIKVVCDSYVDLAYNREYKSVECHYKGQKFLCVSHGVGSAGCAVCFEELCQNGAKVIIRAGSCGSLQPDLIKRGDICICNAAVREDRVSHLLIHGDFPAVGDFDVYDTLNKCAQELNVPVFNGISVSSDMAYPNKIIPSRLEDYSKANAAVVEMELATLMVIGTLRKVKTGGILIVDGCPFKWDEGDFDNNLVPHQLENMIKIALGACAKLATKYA
Protocol: (§1) Kinetic assays were completed in 50 mM KH2PO4 at pH 7.4 measuring phosphorylysis of inosine or MTI by PNP in a coupled reaction with 60 milliunits/ml xanthine oxidase to convert hypoxanthine to uric acid. Formation of uric acid was measured at 293 nm wavelength (E293 = 12.9 mM^−1 cm^−1), [20]. In cases where activity for MTI was low, increased protein concentration (10 µg/ml) was used to check enzyme function. Assays were performed with excess substrate in the presence of inhibitors. Inhibition studies measured both initial (Ki) and slow onset inhibition (Ki*) for inhibitors. The initial onset inhibition was analyzed by using the following equation: ν ο = (k cat×S)/(K m(1+I/Ki)+S), ν ο is the steady state rate, k cat catalytic rate, S is substrate concentration, Km is Michealis constant for inosine, I is inhibitor concentration, and Ki is the equilibrium dissociation constant.

[2] = target: T2, PfPNP Tyr160Phe (Plasmodium falciparum, UniProt Q8I3X4, Y160F); conditions: for Km / kcat: substrate = label
T2 construct: made in house; host or cells: Escherichia coli Top 10
T2 sequence (Q8I3X4 1-245 Y160F): T1 sequence (Q8I3X4 1-245 Y160A) with A160F
Protocol: as §1

[3] = target: T3, PfPNP V66I/V73I/Y160F (Plasmodium falciparum, UniProt Q8I3X4, V66I/V73I/Y160F); conditions: for Ino/MTI kcat/Km Ratio / Km / kcat: V66I/V73I/Y160F PfPNP; for Km / kcat: substrate = label
T3 construct: made in house; host or cells: Escherichia coli Top 10
T3 sequence (Q8I3X4 1-245 V66I/V73I/Y160F): T1 sequence (Q8I3X4 1-245 Y160A) with V66I, V73I, A160F
Protocol: as §1

[4] = target: T4, PfPNP Val66Ile/Val73Ile (Plasmodium falciparum, UniProt Q8I3X4, V66I/V73I); conditions: for Km / kcat: substrate = label
T4 construct: made in house; host or cells: Escherichia coli Top 10
T4 sequence (Q8I3X4 1-245 V66I/V73I): T1 sequence (Q8I3X4 1-245 Y160A) with V66I, V73I, A160Y
Protocol: as §1

[5] = target: T5, PfPNP Val73Ala (Plasmodium falciparum, UniProt Q8I3X4, V73A); conditions: for Km / kcat: substrate = label
T5 construct: made in house; host or cells: Escherichia coli Top 10
T5 sequence (Q8I3X4 1-245 V73A): T1 sequence (Q8I3X4 1-245 Y160A) with V73A, A160Y
Protocol: as §1

[6] = target: T6, PfPNP Val73Ile (Plasmodium falciparum, UniProt Q8I3X4, V73I); conditions: for Km / kcat: substrate = label
T6 construct: made in house; host or cells: Escherichia coli Top 10
T6 sequence (Q8I3X4 1-245 V73I): T1 sequence (Q8I3X4 1-245 Y160A) with V73I, A160Y
Protocol: as §1

[7] = target: T7, PfPNP Val73Ile/Tyr160Phe (Plasmodium falciparum, UniProt Q8I3X4, V73I/Y160F); conditions: for Km / kcat: substrate = label
T7 construct: made in house; host or cells: Escherichia coli Top 10
T7 sequence (Q8I3X4 1-245 V73I/Y160F): T1 sequence (Q8I3X4 1-245 Y160A) with V73I, A160F
Protocol: as §1

[8] = V66I:V73I:Y160F PfPNP versus wild type

## 5′-methylthioinosine
[1]
  Km: 200 ± 59 µM
  kcat: 0.09 ± 0.01 s⁻¹
  reduced catalytic efficiency compared to wild-type PfPNP: ~1000 fold
[2]
  Km: 44 ± 5 µM
  kcat: 0.30 ± 0.04 s⁻¹
[3]
  Ino/MTI kcat/Km Ratio: 160
  Km: 18 ± 6 µM
  kcat: 0.01 ± 0.00 s⁻¹
[3]; [8]
  decrease in kcat: 83 fold
  increase in Km: 2 fold
[4]
  Km: 15 ± 5 µM
  kcat: 0.91 ± 0.20 s⁻¹
[5]
  Km: 20 ± 10 µM
  kcat: 1.9 ± 0.3 s⁻¹
[6]
  Km: 11 ± 8 µM
  kcat: 0.81 ± 0.03 s⁻¹
[7]
  Km: 60 ± 33 µM
  kcat: 0.28 ± 0.04 s⁻¹

## OC[C@H]1O[C@@H](n2cnc3c(O)ncnc32)[C@H](O)[C@@H]1O [Inosine, inosine]
[1]
  Ino/MTI kcat/Km Ratio: 0.5
  Km: 5400 ± 120 µM
  kcat: 0.1 ± 0.0 s⁻¹
  reduced catalytic efficiency compared to wild-type PfPNP: ~1000 fold
[2]
  Ino/MTI kcat/Km Ratio: 12
  Km: 2.5 ± 1.2 µM
  kcat: 0.21 ± 0.02 s⁻¹
[3]
  Ino/MTI kcat/Km Ratio: 160
  Km: 4 ± 1.8 µM
  kcat: 0.36 ± 0.23 s⁻¹
[4]
  Ino/MTI kcat/Km Ratio: 2.7
  Km: 28 ± 11 µM
  kcat: 4.6 ± 0.6 s⁻¹
[5]
  Ino/MTI kcat/Km Ratio: 1.6
  Km: 7 ± 4 µM
  kcat: 1.1 ± 0.1 s⁻¹
[6]
  Ino/MTI kcat/Km Ratio: 2.0
  Km: 13 ± 2 µM
  kcat: 1.9 ± 0.7 s⁻¹
[7]
  Ino/MTI kcat/Km Ratio: 35
  Km: 3.6 ± 1.3 µM
  kcat: 0.59 ± 0.13 s⁻¹
